Key:
CD80/PD-L1 binding = biological target: T1, CD80/PD-L1 binding (Homo sapiens, UniProt Q9NZQ7); assay: HTRF inhibition of CD80/PD-L1 binding in vitro; details: His-CD80 100 nM, PD-L1-Fc 2 nM, read-out: IC50 inhibiting CD80/PD-L1 binding in vitro
T1 construct: purchased Sino Biological Inc. 10084-H02H-100 (PD-L1-Fc); 10698-H08H-100 (His-CD80)
Description: In addition to PD-1, PD-L1 can also exert immunosuppressive activity by binding to CD80. Similarly, in vitro experiments of binding or binding inhibition of CD80 and PD-L1 can also be measured by homogeneous time-resolved fluorescence (HTRF). When the anti-hFc-Eu^3+ antibody and anti-His-XL665 antibody were bound to the hFC tag fused to PD-L1 and the His tag fused to CD80 respectively, and excited with a 320 nm wavelength laser, the binding of PD-L1 and CD80 enabled energy to be transferred from the Eu element to the XL665 fluorescein, which was excited to emit light. When the inhibitor of the interaction between PD-L1 and CD80 was added, the combination of the two was destroyed, so that the distance between Eu and XL665 was far away, the energy cannot be transferred, and XL665 would not be excited.
(§1) Recombinant human CD80 protein with His tag (His-CD80 protein, Cat #: 10698-H08H-100), and recombinant human PD-L1-Fc fusion protein (PD-L1-Fc fusion protein, Cat #: 10084-H02H-100) were purchased from Sino Biological Inc., anti-hFc-Eu^3+ antibody and anti-His-XL665 antibody were purchased from Cisbio Company, and other related reagents such as dilution buffer (Diluent buffer 5, Cat #: 62DL5DDC), detection buffer (PPI-Europium detection buffer, Cat #: 61DB9RDF) were purchased from Cisbio Company. Fluorescence detection instrument Tecan (Spark 10 M) was purchased from Switzerland Tecan Company.
(§2) (1) Experimental preparation: The test compound was diluted with dilution buffer into different concentration gradients (the highest final concentration in 20 μL final reaction system was 10 μM), His-CD80 protein was diluted to 800 nM (the final concentration in 20 μL final reaction system was 100 nM), and the PD-L1-Fc fusion protein was diluted to 16 nM (final concentration was 2 nM). The anti-His-XL665 antibody and anti-hFc-Eu^3+ antibody were respectively diluted 20 times and 100 times using the detection buffer according to the reagent requirements.
(§3) (2) 5 μL of test compound, 2.5 μL of Hid-CD80 protein and 2.5 μL of PD-1-Fc fusion protein solution were mixed, and incubated at room temperature for 15 min. Then the system was added with 5 μL of anti-His-XL665 antibody and 5 μL of anti-hFc-Eu^3+ antibody, incubated for another 3 h, and then detected.
(3) When detecting the reaction, a control group was provided, including a 0% inhibition positive control without adding test compounds and a 100% inhibition negative control without adding CD-80 protein. All detections were performed with duplicates.
(§4) (4) The fluorescence signal of each well was measured using a fluorescence detector Tecan (Spark 10M) at an excitation wavelength of 320 nm, and emission wavelengths of 620 nm and 665 nm, respectively. The intensity of the mutual binding of CD80 and PD-L1 referred to the ratio of fluorescence signals Em665/Em620.
(§5) (5) The binding inhibition rate of the test compound was calculated as follows: Inhibition rate (%)=[1−(Fluorescence signal ratio of detection well-fluorescence signal ratio of 100% inhibition negative control)]/(fluorescence signal ratio of 0% inhibition positive control-fluorescence signal ratio of 100% inhibition negative control)×100%. After calculating the inhibition rate on CD80/PD-L1 binding of the test compounds with different concentration gradients, the 50% inhibitory concentration (IC50) was calculated.

PD-1/PD-L1 binding = biological target: T2, PD-1/PD-L1 binding (Homo sapiens, UniProt Q9NZQ7); assay: HTRF inhibition of PD-1/PD-L1 binding in vitro; details: His-PD-1 100 nM, PD-L1-Fc 2 nM, read-out: IC50 inhibiting PD-1/PD-L1 binding in vitro
T2 construct: purchased Sino Biological Inc. 10084-H02H-100 (PD-L1-Fc); 10377-H08H-50 (His-PD-1)
T2 sequence (Q9NZQ7 19-239 limits assumed): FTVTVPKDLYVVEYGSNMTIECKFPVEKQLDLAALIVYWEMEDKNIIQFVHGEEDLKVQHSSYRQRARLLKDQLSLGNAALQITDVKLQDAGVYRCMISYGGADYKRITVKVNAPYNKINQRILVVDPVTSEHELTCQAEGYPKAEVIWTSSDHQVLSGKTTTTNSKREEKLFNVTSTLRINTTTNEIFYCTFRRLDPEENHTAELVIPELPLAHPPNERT
Description: Homogeneous Time-Resolved Fluorescence (HTRF): This method used the recombinant human PD-L1 protein fused to express the hFc tag and the recombinant human PD-1 protein fused to express the His tag, both of which were interacting ligands and receptors. When the anti-hFc antibody containing Eu element chelation marker and the anti-His antibody labeled with XL665 fluorescein were bound with the above two corresponding labels, and excited by a laser with a wavelength of 320 nm, the ligand-receptor binding enabled the energy to be transferred from the Eu element to the XL665 fluorescein, which was excited to emit light at a wavelength of 665 nm. However, when an inhibitor of the interaction between PD-L1 and PD-1 was added, the binding of the ligand to the receptor was destroyed, so that the distance between Eu and XL665 was far away, the energy cannot be transferred, and XL665 would not be excited.
as §1, with “PD-1” for “CD80”, “(His-PD-1” for “(His-CD80”, “10377-H08H-50),” for “10698-H08H-100),”, “[…]” for “anti-hFc-Eu^3+”
as §2, with “His-PD-1” for “His-CD80”
as §3, with “PD-L1-Fc fusion” for “Hid-CD80”, “His-PD-1” for “PD-1-Fc fusion”
(3) When detecting the reaction, a control group was also provided, including a 0% inhibition positive control without adding test compounds and a 100% inhibition negative control without adding PD-1 protein. All detections were performed with duplicates.
as §4, with “PD-1” for “CD80”
as §5, with “PD-1/PD-L1” for “CD80/PD-L1”

T1 sequence (Q9NZQ7 19-239 limits assumed): as above

Row | IC50 (CD80/PD-L1 binding) | IC50 (PD-1/PD-L1 binding) | Structure (SMILES)
1 | 1.77 nM | 1.63 nM | [2H]C([2H])([2H])n1c(C(=O)Nc2cccc(-c3cccc(NC(=O)c4nc5c(n4C([2H])([2H])[2H])CCN(CCC46CCC(C(=O)O)(CC4)C6)C5)c3Cl)c2F)nc2c1CCN(CCC13CCC(COC)(CC1)C3)C2 (single isomer, unassigned) [Compound I-8, 4-(2-(2-((2-chloro-2′-fluoro-3′-(5-(2-(4-(methoxymethyl)bicyclo[2.2.1]heptane-1-yl)ethyl)-1-(methyl-d3)-4,5,6,7-tetrahydro-1H-imidazo[4,5-c]pyridine-2-carboxamido)-[1,1′-biphenyl]-3-yl)carbamoyl)-1-(methyl-d3)-1,4,6,7-tetrahydro-5H-imidazo[4,5-c]pyridin-5-yl)ethyl)bicyclo[2.2.1]heptane-1-carboxylic acid]
2 | 0.95 nM | 1 nM | [2H]C([2H])([2H])n1c(C(=O)Nc2cccc(-c3cccc(NC(=O)c4nc5c(n4C([2H])([2H])[2H])CCN(CCC46CCC(C(=O)O)(CC4)C6)C5)c3Cl)c2Cl)nc2c1CCN(CCC13CCC(COC)(CC1)C3)C2 [Compound I-6, 4-(2-(2-((2,2′-dichloro-3′-(5-(2-(4-((methoxy)methyl)bicyclo[2.2.1]heptane-1-yl)ethyl)-1-(methyl-d3)-4,5,6,7-tetrahydro-1H-imidazo[4,5-c]pyridine-2-carboxamido)-[1,1′-biphenyl]-3-yl)carbamoyl)-1-(methyl-d3)-1,4,6,7-tetrahydro-5H-imidazo[4,5-c]pyridin-5-yl)ethyl)bicyclo[2.2.1]heptane-1-carboxylic acid]
3 | 0.58 nM | 0.72 nM | [2H]C([2H])([2H])OCC12CCC(CCN3CCc4c(nc(C(=O)Nc5cccc(-c6cccc(NC(=O)c7nc8c(n7C)CCN(CCC79CCC(C(=O)O)(CC7)C9)C8)c6Cl)c5Cl)n4C)C3)(CC1)C2 [Compound I-1, 4-(2-(2-((2,2′-dichloro-3′-(5-(2-(4-((methoxy-d3)methyl)bicyclo[2.2.1]heptane-1-yl)ethyl)-1-methyl-4,5,6,7-tetrahydro-1H-imidazo[4,5-c]pyridine-2-carboxamido)-[1,1′-biphenyl]-3-yl)carbamoyl)-1-methyl-1,4,6,7-tetrahydro-5H-imidazo[4,5-c]pyridin-5-yl)ethyl)bicyclo[2.2.1]heptane-1-carboxylic acid]

Continued, compound first:

Row | Structure (SMILES) | IC50 (CD80/PD-L1 binding) | IC50 (PD-1/PD-L1 binding)
4 | [2H]C([2H])([2H])OCC12CCC(CCN3CCc4c(nc(C(=O)Nc5cccc(-c6cccc(NC(=O)c7nc8c(n7C([2H])([2H])[2H])CCN(CCC79CCC(C(=O)O)(CC7)C9)C8)c6Cl)c5F)n4C([2H])([2H])[2H])C3)(CC1)C2 (single isomer, unassigned) [Compound I-7, 4-(2-(2-((2-chloro-2′-fluoro-3′-(5-(2-(4-((methoxy-d3)methyl)bicyclo[2.2.1]heptane-1-yl)ethyl)-1-(methyl-d3)-4,5,6,7-tetrahydro-1H-imidazo[4,5-c]pyridine-2-carboxamido)-[1,1′-biphenyl]-3-yl)carbamoyl)-1-(methyl-d3)-1,4,6,7-tetrahydro-5H-imidazo[4,5-c]pyridin-5-yl)ethyl)bicyclo[2.2.1]heptane-1-carboxylic acid] | 1.94 nM | 1.38 nM
5 | [2H]C([2H])([2H])OCC12CCC(CCN3CCc4c(nc(C(=O)Nc5cccc(-c6cccc(NC(=O)c7nc8c(n7C([2H])([2H])[2H])CCN(CCC79CCC(C(=O)O)(CC7)C9)C8)c6Cl)c5C)n4C([2H])([2H])[2H])C3)(CC1)C2 [Compound I-9, 4-(2-(2-((2-chloro-3′-(5-(2-(4-((methoxy-d3)methyl)bicyclo[2.2.1]heptane-1-yl)ethyl)-1-(methyl-d3)-4,5,6,7-tetrahydro-1H-imidazo[4,5-c]pyridine-2-carboxamido)-2′-methyl-[1,1′-biphenyl]-3-yl)carbamoyl)-1-(methyl-d3)-1,4,6,7-tetrahydro-5H-imidazo[4,5-c]pyridin-5-yl)ethyl)bicyclo[2.2.1]heptane-1-carboxylic acid] | 3.42 nM | 3.77 nM
6 | [2H]C([2H])([2H])n1c(C(=O)Nc2cccc(-c3cccc(NC(=O)c4nc5c(n4C([2H])([2H])[2H])CCN(CCC46CCC(COC)(CC4)C6)C5)c3Cl)c2C)nc2c1CCN(CCC13CCC(C(=O)O)(CC1)C3)C2 [Compound I-12, 4-(2-(2-((2′-chloro-3′-(5-(2-(4-(methoxymethyl)bicyclo[2.2.1]heptane-1-yl)ethyl)-1-(methyl-d3)-4,5,6,7-tetrahydro-1H-imidazo[4,5-c]pyridine-2-carboxamido)-2-methyl-[1,1′-biphenyl]-3-yl)carbamoyl)-1-(methyl-d3)-1,4,6,7-tetrahydro-5H-imidazo[4,5-c]pyridin-5-yl)ethyl)bicyclo [2.2.1]heptane-1-carboxylic acid] | 2.94 nM | 3.8 nM
7 | [2H]C([2H])([2H])n1c(C(=O)Nc2cccc(-c3cccc(NC(=O)c4nc5c(n4C([2H])([2H])[2H])CCN(CCC46CCC(C(=O)O)(CC4)C6)C5)c3Cl)c2C)nc2c1CCN(CCC13CCC(COC)(CC1)C3)C2 [Compound I-10, 4-(2-(2-((2-chloro-3′-(5-(2-(4-(methoxymethyl)bicyclo[2.2.1]heptane-1-yl)ethyl)-1-(methyl-d3)-4,5,6,7-tetrahydro-1H-imidazo[4,5-c]pyridine-2-carboxamido)-2′-methyl-[1,1′-biphenyl]-3-yl)carbamoyl)-1-(methyl-d3)-1,4,6,7-tetrahydro-5H-imidazo[4,5-c]pyridin-5-yl)ethyl)bicyclo[2.2.1]heptane-1-carboxylic acid] | 4.26 nM | 3.59 nM
